Test results published in patent publication US20230255970A1, “COMPOSITIONS AND METHODS FOR TREATING PROLIFERATIVE DISEASES” (The Broad Institute, Inc., priority 2020, published 2023).

Assays:
TAZ = settings: HT29 cells, six hours; cited from earlier work
TEAD-YAP interaction = settings: HEK-TIYL cells, PubChem; cited from earlier work
KP230 cells = experiment: RNA sequencing and gene set enrichment analysis in KP230 cells; format: cell-based, mouse; settings: 10 μM daily for 72 hours
Excerpt: (§1) YAP1 cell culture and treatments: Eisinger lab: Murine KP230 cells, a Yap1-dependent cancer cell line, were derived from a tumor from the KP mouse model (Kras^G12/D; Trp53^f/fl), as described in Eisinger-Mathason, T. S. K. et al., Proc. Natl. Acad. Sci. U.S.A 112 (2015): E3402-11, which is hereby incorporated by reference in its entirety. STS-109 UPS cells were derived from a human UPS tumor and validated by Rebecca Gladdy, MD (Sinai Health System, Toronto, Ontario, Canada). TC32 cells were a gift from Patrick Grohar, MD, PhD (Children's Hospital of Philadelphia). HT-1080, HCT-116, and HEK293T cells were purchased from ATCC. KP230, HT-1080, and HEK-293T cells were grown in DMEM with 10% FBS, 1% L-glutamine, and 1% penicillin/streptomycin (P/S). STS-109 cells were cultured in DMEM with 20% FBS, 1% L-glutamine, and 1% P/S. TC32 cells were grown in RPMI with 10% FBS, 1% L-glutamine, and 1% P/S. HCT-116 cells were cultured in McCoy's 5A medium with 10% FBS and 1% P/S. All cells were confirmed to be negative for mycoplasma contamination and were maintained in an incubator at 37C with 5% CO2. For experimental purposes, cells were cultured for up to 20 passages before being discarded, and were grown to approximately 50% confluence to circumvent the effects of high cell density on Yap1 expression and activity. […]

YAP1 = experiment: Western blot of phospho-YAP1 (S127) in H9 cells; format: cell-based, human; settings: 24 hrs
Method: H9 hPSCs (WiCell) were maintained on vitronectin (Thermo Fisher)-coated plates in Essential 8 (E8) medium. The cells were routinely passaged using 0.5 mM EDTA and treated with 5 μM Y-27632 dihydrochloride (Tocris) on the first day. For testing the effects of the small molecules, H9 hPSCs were seeded at 50K cells/cm^2 on vitronectin-coated plates in E8 medium supplemented with 5 μM Y-27632 dihydrochloride (day 0). On day 1, the medium was switched to E8 medium. On day 2, the medium was switched to E8 medium supplemented with the small molecules. Following overnight incubation, the cells were collected for subsequent analysis on day 3.
YAP1-related Western blotting: The cells were lysed in RIPA buffer (Pierce) supplemented with Halt Protease inhibitor cocktail and Halt Phosphatase inhibitor cocktail. Cells were lysed in hot Tris-SDS buffer (pH 7.6) and boiled for 5 minutes at 95° C. The protein concentration of each sample was quantified using the Pierce BCA protein assay (Thermo Fisher). The proteins were resolved by SDS-PAGE and transferred to PVDF membranes using the Trans-Blot Turbo Transfer system (Bio-Rad). The membranes were blocked in 5% non-fat milk in TBS-T for up to 1 hour at room temperature and incubated with primary antibodies in 5% bovine serum albumin in TBS-T overnight at 4° C. […]

[1] = tested on: HCT-116 colon cancer cells; experiment: Proliferation assay, HCT-116 cells; format: cell-based; settings: 10 μM daily for 72 hours
Excerpt: as §1, with “CO2.” for “CO2. For experimental purposes, cells were cultured for up to 20 passages before being discarded, and were grown to approximately 50% confluence to circumvent the effects of high cell density on Yap1 expression and activity.”
NB4A treatment: Cells were treated with 10 μM of each inhibitor or an equivalent volume of DMSO every 24 hours for 3-8 days, and counted with a hemocytometer with trypan blue exclusion daily (KP230, HT-1080, TC32, HCT-116), or every 2 days (STS-109).

c1ccc(CNc2ncnc3ccccc23)cc1 [BRD-K43796186, N-benzylquinazolin-4-amine]
TAZ mRNA z-score (TAZ): 2.04
inhibitors of TEAD-YAP interaction (TEAD-YAP interaction): showed activity
pathways down-regulated (GSEA) (KP230 cells): epithelial-mesenchymal transition, angiogenesis, and glycolysis
pathways up-regulated (GSEA) (KP230 cells): interferon alpha and gamma responses
YAP1 S127 phosphorylation (YAP1): decreased YAP1 S127 phosphorylation
proliferation [1]: did not affect the proliferation
